Assay results as given in ChEMBL document CHEMBL1275461, “Early bactericidal activity and pharmacokinetics of the diarylquinoline TMC207 in treatment of pulmonary tuberculosis” (Antimicrob Agents Chemother, 2008).
≈ marks a conversion by molar mass, not a printed value. Calls of active or inactive are those of the source. No cut-off for these calls is given here.

Experiments:
[1] = tested on: Mycobacterium tuberculosis; assay: Bactericidal activity against Mycobacterium tuberculosis selected on 10 times compound MIC measured after 6 days; format: functional, organism-based
[2] = tested on: Mycobacterium tuberculosis; assay: Antimicrobial activity against drug-resistant Mycobacterium tuberculosis; format: functional
[3] = tested on: Mycobacterium tuberculosis; assay: Bactericidal activity against Mycobacterium tuberculosis selected on 100 times compound MIC measured after 6 days; format: functional, organism-based

With `COc1nc2ccc(Br)cc2cc1[C@@H](c1ccccc1)[C@@](O)(CCN(C)C)c1cccc2ccccc12` [BEDAQUILINE] the Activity [1] was “Active”, the MIC [2] was 0.03 µg/mL (≈ 0.054 µM) and the Activity [3] was “Active”.
